Assay results reported in patent publication US9586950B2 (MERCK SHARP & DOHME CORP., priority 2012, dated 2017).
Like-named read-outs stand apart in the source and are kept apart here.

Key:
[1] = biological target: T1, hOX1R (orexin-1 receptor) (Rattus norvegicus, UniProt P56718); assay: FLIPR Ca2+ Flux Assay, hOX1R FLIPR; assay type: cell-based; settings: CHO cells, 70 pM Ala-6,12 human orexin-A agonist
Procedure: (§1) In a typical experiment the OX1 and OX2 receptor antagonistic activity of the compounds of the present invention was determined in accordance with the following experimental method. For intracellular calcium measurements, Chinese hamster ovary (CHO) cells expressing the rat orexin-1 receptor or the human orexin-2 receptor, are grown in Iscove's modified DMEM containing 2 mM L-glutamine, […], 1% hypoxanthine-thymidine supplement, 100 U/ml penicillin, 100 μg/ml streptomycin and 10% heat-inactivated fetal calf serum (FCS). The cells are seeded at 20,000 cells/well into Becton-Dickinson black 384-well clear bottom sterile plates coated with poly-D-lysine. All reagents were from GIBCO-Invitrogen Corp. The seeded plates are incubated overnight at 37° C. and 5% CO2. Ala-6,12 human orexin-A as the agonist is prepared as a 1 mM stock solution in 1% bovine serum albumin (BSA) and diluted in assay buffer (HBSS containing 20 mM HEPES, 0.1% BSA and 2.5 mM probenecid, pH7.4) for use in the assay at a final concentration of 70 pM. Test compounds are prepared as 10 mM stock solution in DMSO, then diluted in 384-well plates, first in DMSO, then assay buffer. On the day of the assay, cells are washed 3 times with 100 μl assay buffer and then incubated for 60 min (37° C., 5% CO2) in 60 μl assay buffer containing 1 μM Fluo-4AM ester, 0.02% pluronic acid, and 1% BSA. The dye loading solution is then aspirated and cells are washed 3 times with 100 μl assay buffer. 30 μl of that same buffer is left in each well. Within the Fluorescent Imaging Plate Reader (FLIPR, Molecular Devices), test compounds are added to the plate in a volume of 25 μl, incubated for 5 min and finally 25 μl of agonist is added. Fluorescence is measured for each well at 1 second intervals for 5 minutes and the height of each fluorescence peak is compared to the height of the fluorescence peak induced by 70 pM Ala-6,12 orexin-A with buffer in place of antagonist. […] Alternatively, compound potency can be assessed by a radioligand binding assay (described in Bergman et. al. Bioorg. Med. Chem. Lett. 2008, 18, 1425-1430) in which the inhibition constant (Ki) is determined in membranes prepared from CHO cells expressing either the OX1 or OX2 receptor. The intrinsic orexin receptor antagonist activity of a compound which may be used in the present invention may be determined by these assays.

[2] = biological target: T2, human orexin-2 receptor (Homo sapiens (Human), UniProt O43614); assay: radioligand binding assay, hOX2R BIND
Procedure: as §1

[3] = biological target: T2, human orexin-2 receptor; assay: FLIPR Ca2+ Flux Assay, hOX2R FLIPR; assay type: cell-based; settings: CHO cells, 70 pM Ala-6,12 human orexin-A agonist
Procedure: as §1

[4] = biological target: T1, hOX1R (orexin-1 receptor); assay: radioligand binding assay, hOX1R BIND; settings: membranes from CHO cells expressing OX1 receptor; read-out: hOX1R BIND hKi
Procedure: In a typical experiment the OX1 and OX2 receptor antagonistic activity of the compounds of the present invention was determined in accordance with the following experimental method. For intracellular calcium measurements, Chinese hamster ovary (CHO) cells expressing the rat orexin-1 receptor or the human orexin-2 receptor, are grown in Iscove's modified DMEM containing 2 mM L-glutamine, […], 1% hypoxanthine-thymidine supplement, 100 U/ml penicillin, 100 μg/ml streptomycin and 10% heat-inactivated fetal calf serum (FCS). The cells are seeded at 20,000 cells/well into Becton-Dickinson black 384-well clear bottom sterile plates coated with poly-D-lysine. […] Within the Fluorescent Imaging Plate Reader (FLIPR, Molecular Devices), test compounds are added to the plate in a volume of 25 μl, incubated for 5 min and finally 25 μl of agonist is added. Fluorescence is measured for each well at 1 second intervals for 5 minutes and the height of each fluorescence peak is compared to the height of the fluorescence peak induced by 70 pM Ala-6,12 orexin-A with buffer in place of antagonist. […] Alternatively, compound potency can be assessed by a radioligand binding assay (described in Bergman et. al. Bioorg. Med. Chem. Lett. 2008, 18, 1425-1430) in which the inhibition constant (Ki) is determined in membranes prepared from CHO cells expressing either the OX1 or OX2 receptor. […]

[5] = membranes from CHO cells expressing OX2 receptor, read-out: hOX2R BIND hKi

T2 sequence (O43614 whole entry): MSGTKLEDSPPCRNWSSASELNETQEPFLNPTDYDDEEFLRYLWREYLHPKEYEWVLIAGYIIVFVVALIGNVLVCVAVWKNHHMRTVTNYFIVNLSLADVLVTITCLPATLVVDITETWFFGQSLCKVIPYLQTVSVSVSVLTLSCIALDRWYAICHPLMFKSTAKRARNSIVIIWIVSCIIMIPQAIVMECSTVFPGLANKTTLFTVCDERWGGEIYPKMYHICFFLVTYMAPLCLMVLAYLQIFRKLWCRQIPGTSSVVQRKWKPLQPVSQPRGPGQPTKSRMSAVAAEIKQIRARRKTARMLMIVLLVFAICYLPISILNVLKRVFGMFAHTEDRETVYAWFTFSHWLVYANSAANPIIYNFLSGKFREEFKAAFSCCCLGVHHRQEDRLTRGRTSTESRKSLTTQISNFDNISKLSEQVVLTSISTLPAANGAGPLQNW
T1 sequence (P56718 whole entry, looked up): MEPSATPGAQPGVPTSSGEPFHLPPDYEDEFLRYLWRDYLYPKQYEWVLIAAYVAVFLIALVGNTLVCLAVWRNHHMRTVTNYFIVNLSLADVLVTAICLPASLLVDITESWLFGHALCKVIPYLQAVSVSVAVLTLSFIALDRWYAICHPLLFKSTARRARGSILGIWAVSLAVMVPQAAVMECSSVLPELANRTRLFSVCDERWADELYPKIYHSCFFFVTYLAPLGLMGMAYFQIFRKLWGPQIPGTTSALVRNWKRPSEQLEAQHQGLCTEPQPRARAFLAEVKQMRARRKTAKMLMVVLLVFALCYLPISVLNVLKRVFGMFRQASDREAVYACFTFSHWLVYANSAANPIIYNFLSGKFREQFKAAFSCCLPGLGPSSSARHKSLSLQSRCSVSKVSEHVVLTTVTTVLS

Row | Compound | IC50 [1] [nM] | Ki [2, 5] [nM] | IC50 [3] [nM] | Ki [4] [nM] | Ki [2] [nM]
1 | COC(=O)c1c(C#N)ccnc1O[C@@H]1CC[C@@H](C)N(C(=O)c2c(C)cccc2-n2nccn2)C1 [Example 19, methyl 4-cyano-2-{[(3R,6R)-6-methyl-1-{[2-methyl-6-(2H-1,2,3-triazol-2-yl)phenyl]carbonyl}piperidin-3-yl]oxy}pyridine-3-carboxylate] | 208 | 0.26 | 16.9 | – | –
2 | COC(=O)c1c(C#N)ccnc1O[C@@H]1CCC(C)N(C(=O)c2ccccc2-c2ncccn2)C1 (stereo partly shown) [Example 20] | 417 | 0.54 | 23.8 | 30.8 | –
3 | COC(=O)c1c(C#N)ccnc1O[C@@H]1CC[C@@H](C)N(C(=O)c2ccc(F)cc2-c2ncccn2)C1 [Example 22, methyl 4-cyano-2-({(3R,6R)-1-[(4-fluoro-2-pyrimidin-2-ylphenyl)carbonyl]-6-methylpiperidin-3-yl}oxy)pyridine-3-carboxylate] | 711 | 0.68 | 33.6 | – | –
4 | COC(=O)c1c(C#N)ccnc1O[C@@H]1CC[C@@H](C)N(C(=O)c2cc(F)ccc2-c2ncccn2)C1 [Example 23, methyl 4-cyano-2-({(3R,6R)-1-[(5-fluoro-2-pyrimidin-2-ylphenyl)carbonyl]-6-methylpiperidin-3-yl}oxy)pyridine-3-carboxylate] | 417 | 0.47 | 32 | – | –
5 | COC(=O)c1c(C#N)ccnc1O[C@@H]1CC[C@@H](C)N(C(=O)c2ccccc2-n2ncnn2)C1 [Example 25] | 1290 | – | 7 | – | 0.76
